What follows are molecules tested against T1, GLP-1R (Homo sapiens, UniProt P43220) (assay: EC20 GLP-1(9-36) PAM cAMP assay: dose response of compound in the presence of fixed concentration of GLP-1(9-36)). Settings: GLP-1R CRE-bla CHO-K1 cells, compound dose response in presence of fixed concentration of GLP-1(9-36).
T1 construct: host or cells: CRE-bla CHO-K1
Assay type: cell-based
Outline: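 Positive allosteric modulation read as cAMP rise: 12-point compound titration combined with a fixed EC20 level of GLP-1(9-36) on GLP-1R CHO-K1 cells, IBMX present, 30 min at 37 °C. Luminescent HitHunter signal converted to cAMP; nonlinear fit gave EC50 and Emax.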

T1 sequence (P43220 24-463): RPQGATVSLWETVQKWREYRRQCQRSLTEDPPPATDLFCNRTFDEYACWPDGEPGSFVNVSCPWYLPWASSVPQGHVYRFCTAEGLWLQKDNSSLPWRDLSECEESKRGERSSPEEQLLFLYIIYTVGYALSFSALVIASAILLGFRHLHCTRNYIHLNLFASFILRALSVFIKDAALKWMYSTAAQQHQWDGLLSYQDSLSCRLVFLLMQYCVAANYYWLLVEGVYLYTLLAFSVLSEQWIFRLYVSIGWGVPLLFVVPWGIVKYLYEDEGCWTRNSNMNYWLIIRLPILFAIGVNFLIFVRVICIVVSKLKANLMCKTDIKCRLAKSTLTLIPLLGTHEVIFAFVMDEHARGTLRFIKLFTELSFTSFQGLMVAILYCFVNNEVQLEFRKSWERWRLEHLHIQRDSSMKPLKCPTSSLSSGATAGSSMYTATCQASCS
T1 sequence (P01275 100-127 partner limits assumed): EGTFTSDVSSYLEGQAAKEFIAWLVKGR

EC50 | SMILES
< 800 nM | CCCCCCCOc1ccc(-c2cnc(-c3ccc(C[C@H](NC(=O)c4ccc(C(C)(C)C)cc4)C(=O)NCC(=O)O)cc3)nc2)cc1 [Compound 297, (S)-(2-(4-(tert-butyl)benzamido)-3-(4-(5-(4-(heptyloxy)phenyl)pyrimidin-2-yl)phenyl)propanoyl)glycine]
800 to 2500 nM | CCCCCCCOc1ccc(-c2cnc(-c3ccc(C[C@H](NC(=O)c4cccc(N5CCCC5)c4)C(=O)O)cc3)nc2)cc1 [Compound 92]
800 to 2500 nM | CCCCCCCOc1ccc(-c2cnc(-c3ccc(C[C@H](NC(=O)c4ccc(S(=O)(=O)C(C)C)cc4)C(=O)O)cc3)nc2)cc1 [Compound 122]
800 to 2500 nM | CC(C)(C)c1ccc(C(=O)N[C@@H](Cc2ccc(-c3ncc(-c4ccc(N5CCCCC5)cc4)cn3)cc2)C(=O)O)cc1 [Compound 194]
800 to 2500 nM | CCCCCCCOc1ccc(-c2cnc(-c3ccc(C[C@H](NC(=O)c4ccc(C(C)(C)C)s4)C(=O)NCC4(C(=O)O)CC4)cc3)nc2)cc1 [Compound 340]
800 to 2500 nM | CC(C)(C)Cc1ccc(C(=O)N[C@@H](Cc2ccc(-c3ncc(-c4ccc(C(C)(C)C)cc4)cn3)cc2)C(=O)O)cc1 [Compound 172]
2500 to 5000 nM | Cn1ccc2c(-c3cnc(-c4ccc(C[C@H](NC(=O)c5ccc(C(C)(C)C)cc5)C(=O)O)cc4)nc3)cccc21 [Compound 197]
< 800 nM | CCCCCCCOc1ccc(-c2cnc(-c3ccc(C[C@H](NC(=O)c4ccc(C(C)(C)C)s4)C(=O)N4CC[C@H](C(=O)O)C4)cc3)nc2)cc1 [Compound 349]
2500 to 5000 nM | CC(C)(C)c1ccc(C(=O)N[C@@H](Cc2ccc(-c3noc(-c4ccc(Oc5ccccc5)cc4)n3)cc2)C(=O)O)cc1 [Compound 35]
2500 to 5000 nM | Cc1ccccc1-c1ccc(-c2nc(-c3ccc(C[C@H](NC(=O)c4ccc(C(C)(C)C)cc4)C(=O)O)cc3)no2)cc1 [Compound 14]
5000 to 10000 nM | Cc1cccc(-c2cnc(-c3ccc(C[C@H](NC(=O)c4ccc(C(C)(C)C)cc4)C(=O)O)cc3)nc2)c1 [Compound 217]
2500 to 5000 nM | CC(C)(C)c1ccc(C(=O)N[C@@H](Cc2ccc(-c3ncc(-c4cccc(C(F)(F)F)c4)cn3)cc2)C(=O)O)cc1 [Compound 210]
800 to 2500 nM | CCCCCCCOc1ccc(-c2cnc(-c3ccc(C[C@H](NC(=O)c4ccc(C(C)(C)C)s4)C(=O)NC(CN4CCCC4)C(=O)O)cc3)nc2)cc1 (stereo partly shown) [Compound 338]
5000 to 10000 nM | Cc1ccc(-c2ccc(-c3nc(-c4ccc(C[C@H](NC(=O)c5ccc(C(C)(C)C)cc5)C(=O)O)cc4)no3)cc2)cc1 [Compound 3]
800 to 2500 nM | CCCCCOc1ccc(-c2cnc(-c3ccc(C[C@H](NC(=O)c4ccc(C(C)(C)C)s4)C(=O)O)cc3)nc2)cc1 [Compound 238]
< 800 nM | CCCCCCCOc1ccc(-c2cnc(-c3ccc(C[C@@H](NC(=O)c4ccc(C(C)(C)C)s4)C(=O)N[C@H](CO)C(=O)O)cc3)nc2)cc1 [Compound 379]
800 to 2500 nM | CCCCCCCOc1ccc(-c2cnc(-c3ccc(C[C@H](NC(=O)c4ccc(S(C)(=O)=O)cc4Cl)C(=O)O)cc3)nc2)cc1 [Compound 123]
5000 to 10000 nM | CC(C)(C)c1ccc(C(=O)N[C@@H](Cc2ccc(-c3ncc(-c4cccc(Cl)c4)cn3)cc2)C(=O)O)cc1 [Compound 212]
800 to 2500 nM | CCCCCCCOc1ccc(N2CCN(c3ccc(C[C@H](NC(=O)c4ccc(C(C)(C)C)cc4)C(=O)O)cc3)CC2)cc1 [Compound 267]
2500 to 5000 nM | CN(C)c1ccc(-c2nc(-c3ccc(C[C@H](NC(=O)c4ccc(C(C)(C)C)cc4)C(=O)O)cc3)no2)cc1 [Compound 47]
800 to 2500 nM | CCCCCCCOc1ccc(-c2cnc(-c3ccc(C[C@H](NC(=O)c4ccc(C(C)C)cc4)C(=O)N[C@H](CCCCN)C(=O)O)cc3)nc2)cc1 [Compound 314]
800 to 2500 nM | CCCCCCCOc1ccc(-c2cnc(-c3ccc(C[C@H](NC(=O)c4ccc(C(C)(C)C)s4)C(=O)N4CCC[C@@H]4C(=O)O)cc3)nc2)cc1 [Compound 329]

EC50 | SMILES
2500 to 5000 nM | CC(C)(C)c1ccc(C(=O)N[C@@H](Cc2ccc(-c3noc(-c4ccc(OCc5ccccc5)cc4)n3)cc2)C(=O)O)cc1 [Compound 36]
800 to 2500 nM | CCCCCCCOc1ccc(-c2cnc(-c3ccc(C[C@H](NC(=O)c4ccc(N)cc4)C(=O)O)cc3)nc2)cc1 [Compound 102]
5000 to 10000 nM | Cc1ccc(-c2cnc(-c3ccc(C[C@H](NC(=O)c4ccc(C(C)(C)C)cc4)C(=O)O)cc3)nc2)cc1 [Compound 203]
2500 to 5000 nM | CC(C)(C)c1ccc(-c2cnc(-c3ccc(C[C@H](NC(=O)c4ccc(C(C)(C)C)s4)C(=O)NC(CN)C(=O)O)cc3)nc2)cc1 (stereo partly shown) [Compound 366]
800 to 2500 nM | CCCCCCCOc1ccc(-c2cnc(-c3ccc(C[C@H](NC(=O)c4cc5c(s4)CCC5)C(=O)O)cc3)nc2)cc1 [Compound 150]
800 to 2500 nM | CC(C)(C)c1ccc(-c2cnc(-c3ccc(C[C@H](NC(=O)c4ncc(C(C)(C)C)s4)C(=O)O)cc3)nc2)cc1 [Compound 177]
2500 to 5000 nM | CSc1ccc(-c2nc(-c3ccc(C[C@H](NC(=O)c4ccc(C(C)(C)C)cc4)C(=O)O)cc3)no2)cc1 [Compound 40]
5000 to 10000 nM | CCCCCCCOc1ccc(C2CCN(c3ccc(C[C@H](NC(=O)c4ccc(C(C)(C)C)cc4)C(=O)O)cc3)C2)cc1 (stereo partly shown) [Compound 265]
800 to 2500 nM | CCCCCCCOc1ccc(-c2cnc(-c3ccc(C[C@H](NC(=O)c4c(Cl)ccc(F)c4Cl)C(=O)O)cc3)nc2)cc1 [Compound 116]
2500 to 5000 nM | COc1ccc(-c2nc(-c3ccc(C[C@H](NC(=O)c4ccc(C(C)(C)C)cc4)C(=O)O)cc3)no2)cc1OC [Compound 37]
800 to 2500 nM | CC(C)(C)c1ccc(-c2cnc(-c3ccc(C[C@H](NC(=O)c4ccc(C(C)(C)C)s4)C(=O)N[C@@H](CCC(N)=O)C(=O)O)cc3)nc2)cc1 [Compound 360]
2500 to 5000 nM | CC(C)(C)c1ccc(C(=O)N[C@@H](Cc2ccc(-c3ncc(-c4cccc(-c5ccccc5)c4)cn3)cc2)C(=O)O)cc1 [Compound 218]
800 to 2500 nM | CC(C)(C)c1ccc(-c2cnc(-c3ccc(C[C@H](NC(=O)c4ccc(OC(F)(F)F)cc4)C(=O)O)cc3)nc2)cc1 [Compound 173]
800 to 2500 nM | CC(C)c1ccc(C(=O)N[C@@H](Cc2ccc(-c3ncc(-c4ccc(C(C)(C)C)cc4)cn3)cc2)C(=O)O)cc1 [Compound 161]
5000 to 10000 nM | CC(C)(C)c1ccc(C(=O)N[C@@H](Cc2ccc(-c3ncc(-c4ccc5c(c4)CCCN5)cn3)cc2)C(=O)O)cc1 [Compound 236]
< 800 nM | CCCCCCCOc1ccc(-c2cnc(-c3ccc(C[C@H](NC(=O)c4ccc(C(C)(C)C)s4)C(=O)N[C@@H](CO)C(=O)O)cc3)nc2)cc1 [Compound 326]
< 800 nM | CCCCCCCOc1ccc(-c2cnc(-c3ccc(C[C@H](NC(=O)c4cnn(C(C)(C)C)c4)C(=O)O)cc3)nc2)cc1 [Compound 143]
800 to 2500 nM | CCCCCCCOc1ccc(-c2cnc(-c3ccc(C[C@H](NC(=O)c4ccc(C)cc4)C(=O)O)cc3)nc2)cc1 [Compound 110]
< 800 nM | CCCCCCCOc1ccc(-c2ccc(-c3ccc(C[C@H](NC(=O)c4ccc(C(C)(C)C)s4)C(=O)O)cc3)nc2)cc1 [Compound 277]
800 to 2500 nM | CCc1ccc(C(=O)N[C@@H](Cc2ccc(-c3ncc(-c4ccc(C(C)(C)C)cc4)cn3)cc2)C(=O)O)s1 [Compound 166]
800 to 2500 nM | CCCCCCCOc1ccc(-c2cnc(-c3ccc(C[C@H](NC(=O)c4ccc(CCCC)cc4)C(=O)O)cc3)nc2)cc1 [Compound 107]

— patent publication US8778923B2, “GLP-1 receptor modulators” (Receptos, Inc., priority 2011, dated 2014)
